What follows are compounds tested against T1, Human OTUB1 wild-type (Homo sapiens, UniProt Q96FW1) (assay: Covalent modification of OTUB1 (adduct formation), mass spectrometry-based assay (OTUB1 covalent binders; selected CFTR or cGAS based bivalent compounds)). Conditions: covalent adduct formation with OTUB1 protein.
T1 construct: His tag (N); made in house; host or cells: E. coli BL21-CodonPlus (DE3)-RIPIL
T1 sequence (Q96FW1 whole entry): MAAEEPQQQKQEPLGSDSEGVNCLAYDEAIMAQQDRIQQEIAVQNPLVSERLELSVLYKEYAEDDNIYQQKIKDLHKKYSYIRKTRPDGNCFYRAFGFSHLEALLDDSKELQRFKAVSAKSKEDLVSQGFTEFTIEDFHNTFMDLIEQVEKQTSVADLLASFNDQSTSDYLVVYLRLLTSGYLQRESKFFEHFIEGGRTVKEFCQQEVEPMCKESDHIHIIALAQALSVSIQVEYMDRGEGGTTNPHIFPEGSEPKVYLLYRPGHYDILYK
Type: binding
How it was run: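 His-tagged human OTUB1 (10 μM), E. coli-expressed, incubated with compound (2500 μM) in 50 mM Tris-HCl pH 7.5, 150 mM NaCl, 0.5 mM TCEP for 1 h at room temperature. Adduct detected by intact-protein LC/ESI-TOF mass spectrometry after buffer exchange; duplicates.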
With CN(C)C/C=C/C(=O)N1C2CC1CN(C(=O)c1csc3ccccc13)C2 [XS190-47, (E)-1-(3-(benzo[b]thiophene-3-carbonyl)-3,6-diazabicyclo[3.1.1]heptan-6-yl)-4-(dimethylamino)but-2-en-1-one] the “% of OTUB1 modified” value was 70%. With CN(C)C/C=C/C(=O)N1C2CC1CN(C(=O)c1cc3c(s1)CCCC3)C2 [XS190-48, (E)-4-(dimethylamino)-1-(3-(4,5,6,7-tetrahydrobenzo[b]thiophene-2-carbonyl)-3,6-diazabicyclo[3.1.1]heptan-6-yl)but-2-en-1-one] the “% of OTUB1 modified” value was 90%. CN(C)C/C=C/C(=O)N1C2CC1CN(C(=O)c1csc3c1CCCC3)C2 [XS190-49, (E)-4-(dimethylamino)-1-(3-(4,5,6,7-tetrahydrobenzo[b]thiophene-3-carbonyl)-3,6-diazabicyclo[3.1.1]heptan-6-yl)but-2-en-1-one] was tested, and the “% of OTUB1 modified” value was 70%. With CN(C)C/C=C/C(=O)N1C2CC1CN(C(=O)c1cc3c(s1)CCC3)C2 [XS190-50, (E)-1-(3-(5,6-dihydro-4H-cyclopenta[b]thiophene-2-carbonyl)-3,6-diazabicyclo[3.1.1]heptan-6-yl)-4-(dimethylamino)but-2-en-1-one] the “% of OTUB1 modified” value was 92%. In the case of CC(=O)Nc1ccc2sc(C(=O)N3CC4CC(C3)N4C(=O)/C=C/CN(C)C)cc2c1 [XS190-59, (E)-N-(2-(6-(4-(dimethylamino)but-2-enoyl)-3,6-diazabicyclo[3.1.1]heptane-3-carbonyl)benzo[b]thiophen-5-yl)acetamide], the “% of OTUB1 modified” value is reported as 92%. With CC(=O)N1CCc2sc(C(=O)N3CC4CC(C3)N4C(=O)/C=C/CN(C)C)cc2C1 [XS190-69, (E)-1-(3-(5-acetyl-4,5,6,7-tetrahydrothieno[3,2-c]pyridine-2-carbonyl)-3,6-diazabicyclo[3.1.1]heptan-6-yl)-4-(dimethylamino)but-2-en-1-one] the “% of OTUB1 modified” value was 88%. For CC(=O)N1CCc2sc(N3CC4CCC(C3=O)N4C(=O)/C=C/CN(C)C)cc2C1 (stereo not shown) [XS190-70, (E)-3-(5-acetyl-4,5,6,7-tetrahydrothieno[3,2-c]pyridin-2-yl)-8-(4-(dimethylamino)but-2-enoyl)-3,8-diazabicyclo[3.2.1]octan-2-one], the “% of OTUB1 modified” value was 97%. In the case of Cc1ccc(C(=O)N2CC3CCC2CN3C(=O)/C=C/CN(C)C)s1 (stereo not shown) [XS190-77, (E)-4-(dimethylamino)-1-(5-(5-methylthiophene-2-carbonyl)-2,5-diazabicyclo[2.2.2]octan-2-yl)but-2-en-1-one], the “% of OTUB1 modified” value is reported as 7%. For Cc1ccc(C(=O)N2C[C@@H]3C[C@H]2CN3C(=O)/C=C/CN(C)C)s1 [XS190-80, (E)-4-(dimethylamino)-1-((1S,4S)-5-(5-methylthiophene-2-carbonyl)-2,5-diazabicyclo[2.2.1]heptan-2-yl)but-2-en-1-one], the “% of OTUB1 modified” value was 7%. Cc1ccc(C(=O)N2C[C@H]3C[C@@H]2CN3C(=O)/C=C/CN(C)C)s1 [XS190-81, (E)-4-(dimethylamino)-1-((1R,4R)-5-(5-methylthiophene-2-carbonyl)-2,5-diazabicyclo[2.2.1]heptan-2-yl)but-2-en-1-one] was tested, and the “% of OTUB1 modified” value was 10%. With CN(C)C/C=C/C(=O)N1C2CC1CN(C(=O)c1ccccc1)C2 [XS190-126, (E)-1-(3-benzoyl-3,6-diazabicyclo[3.1.1]heptan-6-yl)-4-(dimethylamino)but-2-en-1-one] the “% of OTUB1 modified” value was 49%. With Cc1ccc(C(=O)NCC2CCN2C(=O)/C=C/CN(C)C)s1 (stereo not shown) [XS190-127, (E)-N-((1-(4-(dimethylamino)but-2-enoyl)azetidin-2-yl)methyl)-5-methylthiophene-2-carboxamide] the “% of OTUB1 modified” value was 15%. CN(C)C/C=C/C(=O)N1C2CC1CN(C(=O)C1CCCC1)C2 [XS190-128, (E)-1-(3-(cyclopentanecarbonyl)-3,6-diazabicyclo[3.1.1]heptan-6-yl)-4-(dimethylamino)but-2-en-1-one] was tested, and the “% of OTUB1 modified” value was 47%. CN(C)C/C=C/C(=O)N1C2CC1CN(C(=O)C1CCCCC1)C2 [XS190-129, (E)-1-(3-(cyclohexanecarbonyl)-3,6-diazabicyclo[3.1.1]heptan-6-yl)-4-(dimethylamino)but-2-en-1-one] was tested, and the “% of OTUB1 modified” value was 48%. With CC(=O)NCc1ccc(C(=O)N2CC3CC(C2)N3C(=O)/C=C/CN(C)C)s1 [XS190-130, (E)-N-((5-(6-(4-(dimethylamino)but-2-enoyl)-3,6-diazabicyclo[3.1.1]heptane-3-carbonyl)thiophen-2-yl)methyl)acetamide] the “% of OTUB1 modified” value was 53%. For Cc1ocnc1C(=O)N1CC2CC(C1)N2C(=O)/C=C/CN(C)C [XS190-137, (E)-4-(dimethylamino)-1-(3-(5-methyloxazole-4-carbonyl)-3,6-diazabicyclo[3.1.1]heptan-6-yl)but-2-en-1-one], the “% of OTUB1 modified” value was 20%. In the case of COCc1ccc(C(=O)N2CC3CC(C2)N3C(=O)/C=C/CN(C)C)s1 [XS190-138, (E)-4-(dimethylamino)-1-(3-(5-(methoxymethyl)thiophene-2-carbonyl)-3,6-diazabicyclo[3.1.1]heptan-6-yl)but-2-en-1-one], the “% of OTUB1 modified” value is reported as 45%. For CN(C)C/C=C/C(=O)N1C2CCC1C(=O)N(C1CCCC1)C2 (stereo not shown) [XS190-144, (E)-3-cyclopentyl-8-(4-(dimethylamino)but-2-enoyl)-3,8-diazabicyclo[3.2.1]octan-2-one], the “% of OTUB1 modified” value was 80%. In the case of Cc1ccc(C(=O)N2CC3CC(C2)N3C(=O)/C=C/CN(C)C)o1 [XS190-157, (E)-4-(dimethylamino)-1-(3-(5-methylfuran-2-carbonyl)-3,6-diazabicyclo[3.1.1]heptan-6-yl)but-2-en-1-one], the “% of OTUB1 modified” value is reported as 80%. In the case of Cc1ccc(CN2CC3CC(C2)N3C(=O)/C=C/CN(C)C)s1 [XS190-158, (E)-4-(dimethylamino)-1-(3-((5-methylthiophen-2-yl)methyl)-3,6-diazabicyclo[3.1.1]heptan-6-yl)but-2-en-1-one], the “% of OTUB1 modified” value is reported as 8%. In the case of CC1CCC(C(=O)N2CC3CC(C2)N3C(=O)/C=C/CN(C)C)C1 (stereo not shown) [XS190-170, (E)-4-(dimethylamino)-1-(3-(3-methylcyclopentane-1-carbonyl)-3,6-diazabicyclo[3.1.1]heptan-6-yl)but-2-en-1-one], the “% of OTUB1 modified” value is reported as 55%. In the case of Cc1cccc(N2CC3CCC(C2=O)N3C(=O)/C=C/CN(C)C)n1 (stereo not shown) [XS190-181, (E)-8-(4-(dimethylamino)but-2-enoyl)-3-(6-methylpyridin-2-yl)-3,8-diazabicyclo[3.2.1]octan-2-one], the “% of OTUB1 modified” value is reported as 30%. With Cc1cccc(N2CC3CCC(C2=O)N3C(=O)/C=C/CN(C)C)c1 (stereo not shown) [XS190-182, (E)-8-(4-(dimethylamino)but-2-enoyl)-3-(m-tolyl)-3,8-diazabicyclo[3.2.1]octan-2-one] the “% of OTUB1 modified” value was 90%. Cc1cnc(N2CC3CCC(C2=O)N3C(=O)/C=C/CN(C)C)s1 (stereo not shown) [XS190-183, (E)-8-(4-(dimethylamino)but-2-enoyl)-3-(5-methylthiazol-2-yl)-3,8-diazabicyclo[3.2.1]octan-2-one] was tested, and the “% of OTUB1 modified” value was 95%. In the case of CC(=O)N1CC2CC(C1)N2C(=O)/C=C/CN(C)C [XS190-186, (E)-1-(3-acetyl-3,6-diazabicyclo[3.1.1]heptan-6-yl)-4-(dimethylamino)but-2-en-1-one], the “% of OTUB1 modified” value is reported as 70%. With CN(C)C/C=C/C(=O)N1C2CCC1C(=O)N(C)C2 (stereo not shown) [XS197-4, (E)-8-(4-(dimethylamino)but-2-enoyl)-3-methyl-3,8-diazabicyclo[3.2.1]octan-2-one] the “% of OTUB1 modified” value was 75%. For CC(=O)N1CCC(C(=O)N2CC3CC(C2)N3C(=O)/C=C/CN(C)C)CC1 [XS197-6, (E)-1-(3-(1-acetylpiperidine-4-carbonyl)-3,6-diazabicyclo[3.1.1]heptan-6-yl)-4-(dimethylamino)but-2-en-1-one], the “% of OTUB1 modified” value was 22%. Cc1ccc(N2CC3CCC(C2=O)N3C(=O)/C=C/CN(C)C)[nH]1 (stereo not shown) [XS197-14, (E)-8-(4-(dimethylamino)but-2-enoyl)-3-(5-methyl-1H-pyrrol-2-yl)-3,8-diazabicyclo[3.2.1]octan-2-one] was tested, and the “% of OTUB1 modified” value was 85%. For CN1CC2CCC(C1=O)N2C(=O)CCl (stereo not shown) [XS197-29, 8-(2-chloroacetyl)-3-methyl-3,8-diazabicyclo[3.2.1]octan-2-one], the “% of OTUB1 modified” value was 75%. With CN(C)C/C=C/C(=O)N1C2CC1CN(C(=O)C1CCC1)C2 [XS197-38, (E)-1-(3-(cyclobutanecarbonyl)-3,6-diazabicyclo[3.1.1]heptan-6-yl)-4-(dimethylamino)but-2-en-1-one] the “% of OTUB1 modified” value was 43%. In the case of CC(C)c1ccc(C(=O)N2CC3CC(C2)N3C(=O)/C=C/CN(C)C)s1 [XS197-49, (E)-4-(dimethylamino)-1-(3-(5-isopropylthiophene-2-carbonyl)-3,6-diazabicyclo[3.1.1]heptan-6-yl)but-2-en-1-one], the “% of OTUB1 modified” value is reported as 85%. With CC(C)C(=O)N1CC2CC(C1)N2C(=O)/C=C/CN(C)C [XS197-50, (E)-4-(dimethylamino)-1-(3-isobutyryl-3,6-diazabicyclo[3.1.1]heptan-6-yl)but-2-en-1-one] the “% of OTUB1 modified” value was 8%. In the case of CN(C)C/C=C/C(=O)N1C2CCC1C(=O)N(C1CCC1)C2 (stereo not shown) [XS197-70, (E)-3-cyclobutyl-8-(4-(dimethylamino)but-2-enoyl)-3,8-diazabicyclo[3.2.1]octan-2-one], the “% of OTUB1 modified” value is reported as 75%. CC(=O)N1CCC(c2ccc(C(=O)N3CC4CC(C3)N4C(=O)/C=C/CN(C)C)s2)C1 (stereo not shown) [XS197-71, (E)-1-(3-(5-(1-acetylpyrrolidin-3-yl)thiophene-2-carbonyl)-3,6-diazabicyclo[3.1.1]heptan-6-yl)-4-(dimethylamino)but-2-en-1-one] was tested, and the “% of OTUB1 modified” value was 78%.
